{
  "source": "patent US20060229224A1",
  "about": "“Bleaching composition” (priority 2003, published 2006)",
  "key": {"3T3 [1]": {"test_system": "3T3", "description": "(§1) Photo-bleaches were tested for photo-toxicity using the Photo-toxicity-In Vitro 3T3 NRU Photo-toxicity Test” of the Commission Directive 2000/33/EC of 25 Apr."}, "[2]": {"assay": "Photo-bleaching of palm oil stained cotton cloths in wash followed by weatherometer irradiation", "conditions": "staining relative to clean white cloth", "procedure": "Palm oil stained cloths (Brazilian) were prepared as follows. Palm oil 0.06 g was added deposited onto individual woven white cotton cloth samples weighing 1.2 g each. The cloth samples were allowed to age for 1 hour before being washed. Each wash consisted of four stained cloths, 200 ml of 40° C. water and 1 g of Persil Colour-washing powder (purchased in UK, zeolite based). The wash liquor was agitated for 20 minutes then the clothes rinsed in cold water, wrung and irradiated in a weatherometer for 18 minutes. The weatherometer is designed to simulate outside line drying and was set to give 42 W/m2 in the UVA&B.\nThe washes were duplicated but with the addition of 9 ppm of the photo-bleach to the wash solution, corresponding to 0.18% by weight on the powder formulation.\nAfter the wash/irradiation procedure the staining of the clothes relative to clean white cloth was measured on a reflectometer and expressed as the deltaE value."}, "3T3 [3]": {"test_system": "3T3", "assay": "In Vitro 3T3 NRU Photo-toxicity Test", "conditions": "for Result: photo-toxicity classification", "description": "as §1"}, "[4]": {"conditions": "Example 1, 9 ppm photo-bleach in wash solution, 40° C. wash, irradiated 18 minutes in weatherometer"}, "[5]": {"conditions": "Table 3, PIF quoted to 2 significant figures"}, "[6]": {"conditions": "Example 2, same procedure as Example 1, 9 ppm photo-bleach"}},
  "note": "Several values for one entry are separate records, joined by “and”; a condition that tells them apart may be missing. Identical values can stand only once. Entries after “also recorded” stand apart in the source; their conditions may differ. Like-named read-outs stand apart in the source and are kept apart here.",
  "data": [
    {"molecule": "2-sulphate anthraquinone", "values": [
      {"measurement": "PIF", "setting": "3T3 [1]", "value": ">170"}
    ]},
    {"molecule": "O=C(c1ccccc1)C1(O)CCCCC1", "note": "[1-hydroxycyclohexylphenyl ketone]", "values": [
      {"measurement": "PIF", "setting": "3T3 [1]", "value": ">7.5"}
    ]},
    {"molecule": "Cc1cc(C)c(C(=O)c2ccccc2)c(C)c1", "note": "[2,4,6-trimethylbenzophenone]", "values": [
      {"measurement": "Average deltaE", "setting": "[2]; [4]", "value": 16.2},
      {"measurement": "PIF", "setting": "3T3 [3]; [5]", "value": 28},
      {"measurement": "Result", "setting": "3T3 [3]; Table 3", "value": "Photo-toxic (PIF≧5 or MPE≧0.1)"}
    ]},
    {"molecule": "CCc1ccc2c(c1)C(=O)c1ccccc1C2=O", "note": "[2-ethylanthraquinone]", "values": [
      {"measurement": "Average deltaE", "setting": "[2]; [4]", "value": 2.5},
      {"measurement": "PIF", "setting": "3T3 [3]; [5]", "value": ">1000"},
      {"measurement": "Result", "setting": "3T3 [3]; Table 3", "value": "Photo-toxic (PIF≧5 or MPE≧0.1)"}
    ]},
    {"molecule": "CC(C)(O)C(=O)c1ccc(OCCO)cc1", "note": "[2-hydroxy-4′-hydroxyethoxy-2-methylpropiophenone]", "values": [
      {"measurement": "PIF", "setting": "3T3 [3]; [5]", "value": ">120"},
      {"measurement": "Result", "setting": "3T3 [3]; Table 3", "value": "Photo-toxic (PIF≧5 or MPE≧0.1)"}
    ]},
    {"molecule": "CC1(C)[C@@H]2CC[C@@]1(C)C(=O)C2=O", "note": "[Camphoroquinone]", "values": [
      {"measurement": "Average deltaE", "setting": "[2]; [6]", "value": 23.5}
    ]},
    {"molecule": "CN(C)CCCN1c2ccccc2Sc2ccc(Cl)cc21", "note": "[Chlorpromazine]", "values": [
      {"measurement": "PIF", "setting": "3T3 [3]; [5]", "value": 43},
      {"measurement": "Result", "setting": "3T3 [3]; Table 3", "value": "Photo-toxic (PIF≧5 or MPE≧0.1)"}
    ]},
    {"molecule": "Cc1cc(C)c(C(=O)P(=O)(C(=O)c2c(C)cc(C)cc2C)c2ccccc2)c(C)c1", "note": "[Phenylbis(2,4,6-trimethylbenzoyl)-phosphine oxide]", "values": [
      {"measurement": "PIF", "setting": "3T3 [3]; [5]", "value": ">12"},
      {"measurement": "Result", "setting": "3T3 [3]; Table 3", "value": "Photo-toxic (PIF≧5 or MPE≧0.1)"}
    ]},
    {"molecule": "CC1=CC(=O)c2ccccc2C1=O", "note": "[Vitamin K3, 2-methyl-1,4-napthoquinone]", "values": [
      {"measurement": "Average deltaE", "setting": "[2]; [6]", "value": 2.9},
      {"measurement": "photo-toxicity classification", "setting": "3T3 [3]", "value": "not photo-toxic; also recorded: non-photo-toxic"},
      {"measurement": "PIF", "setting": "3T3 [3]; [5]", "value": 2.3},
      {"measurement": "Result", "setting": "3T3 [3]; Table 3", "value": "Non-photo-toxic (PIF<5 or MPE<0.1)"},
      {"measurement": "PIF", "setting": "3T3 [3]; experiments repeated twice more", "value": "1.9 and 1.6"}
    ]}
  ]
}
